Measured values published in patent publication US8877734B2, “Seleny-methyluracil compounds, radiosensitizer and pharmaceutical composition using them” (Kongju National University Industry-University Cooperation …, priority 2010, dated 2014).

System: Human lung cancer cell line H460
Experiment: Cytotoxicity test on cancer cells (water-soluble tetrazolium salt colorimetric assay)
Type: cell-based
Conditions: for IC50: Homo sapiens, NCI-H460, H460 cells, compound alone without radiation, after a lapse of 72 hours, read-out: IC50 value, the concentration where 50% cells are killed; for cytotoxic effect when applied alone: cancer cell line H460, without the combined radiation treatment
Experimental: Human lung cancer cell line H460 was used in the present test. Firstly, the H460 cell line was cultured in RPMI 1640 medium with 100 U/mL of penicillin, […] of streptomycin and 10% FBS, under the condition of 37° C. and 5% CO2 atmosphere. The cultured cells were placed on a 96-well-plate at the initial cell density of about 2×10^3 cells. In about 24 hours, the cells on the 96-well-plate were treated with the compound 1 and the compound 7 at a designated concentration for 48 hours. The relative cell viability was quantitatively determined by a colorimetric assay using a water-soluble tetrazolium salt. Optical density at 450 nm was measured by an automatic micro plate reader. The results were represented in FIGS. 1 and 2 in the drawings attached to the present specification. As shown in the test example 1, FIG. 1 and FIG. 2, the lung cancer cell line (H460) was treated with the compound 1 (MeSe-T), then after a lapse of 72 hours, IC50 value thereof, that is the concentration where 50% cells are killed, were about 100 μM.

Structure (SMILES) | IC50 | cytotoxic effect when applied alone
C[Se]Cc1cn([C@H]2CC(O)[C@@H](CO)O2)c(=O)[nH]c1=O (stereo partly shown) [compound 1, 5-methylselenyl-methyl-2′-deoxy uridine] | ~100 µM | weak cytotoxic effect
O=c1[nH]c(=O)n([C@H]2CC(O)[C@@H](CO)O2)cc1C[Se]c1ccccc1 (stereo partly shown) [compound 7, 5-phenylselenyl-methyl-2′-deoxy uridine] | ~500 µM | weak cytotoxic effect
